Reference: the supplement of paper PMC10307832

Columns and labels:
Assay in all cases: relative viability (nuclei count vs DMSO), 5 days (fraction); higher = more cells survive
Neratinib = compound: CCOc1cc2ncc(C#N)c(Nc3ccc(OCc4ccccn4)c(Cl)c3)c2cc1NC(=O)/C=C/CN(C)C [Neratinib]
In short: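 Acceptance criteria were a control CV below 25% and at least one doubling per plate. Lung cancer cell lines in 1536-well plates got five library-drug doses (not always all listed) √10 apart by pinning and were left 5 days with no medium change. Viability divides treated-well nuclei by vehicle-well nuclei and is the median across plates. Nuclei were counted by MetaXpress from 4× Hoechst images.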

Neratinib + Phenformin = compound: CCOc1cc2ncc(C#N)c(Nc3ccc(OCc4ccccn4)c(Cl)c3)c2cc1NC(=O)/C=C/CN(C)C [Neratinib] + N=C(N)NC(=N)NCCc1ccccc1 [Phenformin] (partner 250 µM)
In short: (§1)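 Relative viability divides the nuclei count in treated wells by that in vehicle wells. Lung cancer cell lines were seeded in 1536-well plates, dosed by pin tool the next day, and fixed and stained after 5 days in one step with final 0.05% Triton X-100, 1% formaldehyde and 1 ug/ml Hoechst. Dosing was a single drug or a fixed anchor-drug dose plus five library-drug doses (not always all listed) in √10 steps, and values are medians of duplicate plates imaged at 4×.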

Neratinib + Tozasertib = compound: CCOc1cc2ncc(C#N)c(Nc3ccc(OCc4ccccn4)c(Cl)c3)c2cc1NC(=O)/C=C/CN(C)C [Neratinib] + Cc1cc(Nc2cc(N3CCN(C)CC3)nc(Sc3ccc(NC(=O)C4CC4)cc3)n2)n[nH]1 [Tozasertib] (partner 0.1 µM)
In short: as §1

Neratinib + Navitoclax = compound: CCOc1cc2ncc(C#N)c(Nc3ccc(OCc4ccccn4)c(Cl)c3)c2cc1NC(=O)/C=C/CN(C)C [Neratinib] + CC1(C)CCC(c2ccc(Cl)cc2)=C(CN2CCN(c3ccc(C(=O)NS(=O)(=O)c4ccc(N[C@H](CCN5CCOCC5)CSc5ccccc5)c(S(=O)(=O)C(F)(F)F)c4)cc3)CC2)C1 [Navitoclax] (partner 0.5 µM)
In short: as §1

Cell Line	relative viability (Neratinib; 0.01 µM)	relative viability (Neratinib; 0.03162 µM)	relative viability (Neratinib; 0.1 µM)	relative viability (Neratinib; 0.3162 µM)	relative viability (Neratinib; 1 µM)	relative viability (Neratinib + Phenformin; first compound 0.01 µM)	relative viability (Neratinib + Phenformin; first compound 0.03162 µM)	relative viability (Neratinib + Phenformin; first compound 0.1 µM)	relative viability (Neratinib + Phenformin; first compound 0.3162 µM)	relative viability (Neratinib + Phenformin; first compound 1 µM)	relative viability (Neratinib + Tozasertib; first compound 0.01 µM)	relative viability (Neratinib + Tozasertib; first compound 0.03162 µM)	relative viability (Neratinib + Tozasertib; first compound 0.1 µM)	relative viability (Neratinib + Tozasertib; first compound 0.3162 µM)	relative viability (Neratinib + Tozasertib; first compound 1 µM)	relative viability (Neratinib + Navitoclax; first compound 0.01 µM)	relative viability (Neratinib + Navitoclax; first compound 0.03162 µM)	relative viability (Neratinib + Navitoclax; first compound 0.1 µM)	relative viability (Neratinib + Navitoclax; first compound 0.3162 µM)	relative viability (Neratinib + Navitoclax; first compound 1 µM)
201T	1.01	0.996	0.929	1.02	0.934	0.484	0.424	0.44	0.379	0.42	1.14	0.945	0.848	0.858	0.766	1.26	1.19	1.18	1.22	1.25
A549	1.06	1.07	0.856	0.911	0.516	0.162	0.189	–	0.137	0.191	–	–	–	–	–	1.42	1.25	–	1.12	0.528
A-427	1.19	1.1	1.01	0.949	0.986	0.427	0.313	0.32	0.281	0.268	0.234	0.246	0.177	0.214	0.145	1.06	0.984	0.907	0.879	0.46
ABC-1	1.06	1.06	0.898	0.777	0.364	0.211	0.236	0.285	0.231	0.215	0.206	0.139	0.177	0.146	0.185	–	–	–	–	–
BEN	–	1.18	1.03	0.849	0.753	0.259	0.279	0.22	0.251	0.248	0.559	0.576	0.416	0.517	0.447	0.0747	0.0585	0.0644	0.0753	0.0586
CAL-12T	1.06	1.09	0.868	0.631	0.301	0.55	0.572	0.488	0.254	0.179	0.487	0.288	0.249	0.178	0.122	1.27	1.59	0.94	0.632	0.232
COR-L23	1.21	1.17	0.87	1.02	0.86	0.44	0.469	0.429	0.473	0.41	0.216	0.217	0.193	0.186	0.176	1.16	1.13	1.13	0.968	0.485
COR-L 105	0.904	–	0.687	0.329	0.297	0.537	0.467	0.304	0.221	0.193	0.41	0.418	0.375	0.251	0.186	1.01	0.748	0.452	0.226	0.273
Calu-6	1.06	–	0.992	0.955	0.835	–	–	–	–	–	–	–	–	–	–	0.833	0.899	0.975	0.734	0.523
ChaGo-K-1	0.995	1.12	0.896	0.865	0.971	0.466	0.518	0.482	0.432	0.401	0.233	0.224	0.221	0.215	0.229	0.986	1	1.02	0.821	0.905
EBC-1	1.02	1.12	0.872	0.993	0.813	–	–	–	–	–	–	–	–	–	–	0.439	0.408	0.41	0.339	0.219
EKVX	1.04	0.976	0.812	0.43	0.25	0.241	0.244	0.226	0.206	0.132	0.416	0.42	0.345	0.197	0.13	0.999	1.04	0.831	0.305	0.205
EMC-BAC-2	1.32	1.01	0.977	0.935	0.722	0.586	0.554	0.505	0.451	0.377	0.326	0.352	0.317	0.314	0.188	1.16	1.47	1.01	0.993	0.811
EPLC-272H	0.867	0.869	0.841	0.666	0.358	–	0.309	0.317	0.235	0.157	–	0.204	0.267	0.269	0.203	1.09	0.991	0.851	0.822	0.834
H3255	1.07	0.985	0.78	0.327	0.224	0.311	0.28	0.242	0.222	0.246	0.759	0.721	0.423	0.233	0.236	0.583	0.74	0.243	0.0785	0.0934
HARA	1.02	1.05	0.668	0.663	0.644	0.387	0.578	0.385	0.318	0.215	0.106	0.104	0.0889	0.11	0.0872	1.17	1.12	0.562	0.922	0.644
HCC-15	1.04	1.15	0.932	0.878	0.886	0.537	0.576	0.456	0.368	0.349	0.673	0.453	0.39	0.341	0.174	0.697	0.72	0.666	0.625	–
HCC-44	1.06	1.01	1.01	0.943	1.06	0.22	0.228	0.213	0.157	0.245	1.31	1.15	–	0.778	0.458	1.1	0.978	0.867	0.951	0.917
HCC-78	1.07	1.03	0.892	0.87	0.475	0.724	0.731	0.624	0.545	0.296	0.584	0.373	0.401	0.379	0.238	0.747	–	0.702	0.663	0.231

Cell Line	relative viability (Neratinib; 0.01 µM)	relative viability (Neratinib; 0.03162 µM)	relative viability (Neratinib; 0.1 µM)	relative viability (Neratinib; 0.3162 µM)	relative viability (Neratinib; 1 µM)	relative viability (Neratinib + Phenformin; first compound 0.01 µM)	relative viability (Neratinib + Phenformin; first compound 0.03162 µM)	relative viability (Neratinib + Phenformin; first compound 0.1 µM)	relative viability (Neratinib + Phenformin; first compound 0.3162 µM)	relative viability (Neratinib + Phenformin; first compound 1 µM)	relative viability (Neratinib + Tozasertib; first compound 0.01 µM)	relative viability (Neratinib + Tozasertib; first compound 0.03162 µM)	relative viability (Neratinib + Tozasertib; first compound 0.1 µM)	relative viability (Neratinib + Tozasertib; first compound 0.3162 µM)	relative viability (Neratinib + Tozasertib; first compound 1 µM)	relative viability (Neratinib + Navitoclax; first compound 0.01 µM)	relative viability (Neratinib + Navitoclax; first compound 0.03162 µM)	relative viability (Neratinib + Navitoclax; first compound 0.1 µM)	relative viability (Neratinib + Navitoclax; first compound 0.3162 µM)	relative viability (Neratinib + Navitoclax; first compound 1 µM)
HCC-366	1.05	1.1	–	1.01	–	0.631	0.617	0.611	0.626	0.547	0.102	0.114	0.144	0.0752	0.0557	1.08	–	0.975	1.11	1.02
HCC-827	1.09	1.13	0.982	0.679	0.183	0.42	0.411	0.403	0.23	0.151	0.414	0.428	0.396	0.268	0.136	1.02	1.09	1	0.924	0.201
HOP-62	1.02	1.15	0.934	0.914	1.09	0.716	0.702	0.621	0.585	0.617	0.444	0.354	0.33	0.369	0.32	–	1.07	1.1	0.996	1.1
IA-LM	1.03	1.04	0.943	0.881	0.562	–	–	–	–	–	–	–	–	–	–	0.814	0.774	–	0.65	0.494
LC-2-ad	1.01	1.03	0.915	0.738	0.797	–	0.578	0.557	0.421	0.45	0.448	0.424	0.455	0.388	0.277	0.519	0.398	0.411	0.315	0.135
LCLC-97TM1	1.05	1.08	0.955	0.689	0.696	0.461	0.462	0.379	0.29	0.177	0.239	0.189	0.298	0.238	0.121	0.402	0.381	0.633	0.511	0.294
LCLC-103H	0.996	0.997	0.897	1.07	0.989	0.353	0.344	0.34	0.293	0.293	0.44	0.503	0.502	0.511	0.365	–	–	–	–	–
LK-2	1.12	1.05	0.988	0.718	0.499	0.467	0.418	0.518	0.287	0.318	0.159	0.179	0.205	0.189	0.172	0.944	0.97	0.859	0.639	0.342
LOU-NH91	0.988	0.92	0.796	0.691	0.676	0.664	0.634	0.525	0.426	0.412	0.635	0.665	0.527	0.503	0.411	0.682	0.582	0.517	0.374	0.279
NCI-H358	0.949	0.792	0.556	0.275	0.242	0.28	0.266	0.164	0.147	0.101	0.0993	0.0867	0.0981	0.0713	0.0842	–	–	–	–	–
NCI-H650	1.02	1.04	1.12	0.662	0.877	0.509	0.505	0.493	0.392	0.423	0.749	0.829	0.654	0.668	0.583	–	–	–	–	–
NCI-H661	1.1	0.999	0.808	0.57	0.448	0.274	0.242	0.285	0.247	0.251	0.374	0.322	0.323	0.37	0.308	–	–	–	–	–
NCI-H1299	1.01	–	0.89	1.03	1.06	–	–	–	–	–	–	–	–	–	–	1.04	1.06	0.986	1.07	1.11
NCI-H1563	1.03	1.07	0.915	0.864	0.706	0.727	0.643	0.568	0.628	0.409	–	–	–	–	–	–	–	–	–	–
NCI-H1648	0.819	0.931	0.657	0.383	0.432	–	–	–	–	–	0.608	0.364	0.54	0.299	0.188	–	–	–	–	–
NCI-H1703	1.16	0.951	0.909	0.778	0.388	–	–	–	–	–	–	–	–	–	–	1.46	0.921	0.929	0.884	0.286
NCI-H1792	1.33	1.19	0.808	–	0.813	0.298	0.2	0.292	0.261	0.26	–	–	–	–	–	0.622	0.833	0.612	–	0.591
NCI-H2342	0.949	1.01	0.765	0.582	0.66	0.662	0.688	0.517	0.351	0.403	0.414	0.52	0.441	0.455	0.358	–	–	–	–	–
SW 900	–	1.05	0.772	0.94	0.94	0.537	0.658	–	0.609	0.309	0.561	0.444	0.673	0.517	0.387	–	–	–	–	–
